# Test results taken from patent US6525001B1, “Substituted pyrimidine and pyridine herbicides” (Mid-American Commercialization Corporation, priority 1997, dated 2003).
# Tests used:
# Test in all cases: Test B pre-/postemergence
# Type in all cases: in vivo
# Set-up in all cases: key: 0 is no effect; 10 is complete control
# [1] = system: bedstraw (Galium aparine)
# Outline: (§1)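 Seeds were planted and sprayed preemergence, while plants at 2 to 18 cm (1- to 4-leaf stage) were sprayed postemergence at the same time, with test chemical in a non-phytotoxic solvent mixture containing surfactant. After twelve to sixteen days in a greenhouse, injury was rated visually against untreated controls on a 0–10 scale.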
# [2] = system: blackgrass (Alopecurus myosuroides)
# Outline: as §1
# [3] = system: broadleaf signalgrass (Brachiaria decumbens)
# Outline: as §1
# [4] = system: cocklebur (Xanthium strumarium)
# Outline: as §1
# [5] = system: corn (Zea mays)
# Outline: as §1
# [6] = system: crabgrass (Digitaria sanguinalis)
# Outline: as §1
# [7] = system: giant foxtail (Setaria faberii)
# Outline: as §1
# [8] = system: momingglory (Ipomoea hederacea)
# Outline: as §1
# [9] = system: pigweed (Amaranthus retroflexus)
# Outline: as §1
# [10] = system: purple nutsedge (Cyperus rotundus)
# Outline: as §1
# [11] = system: sugar beet (Beta vulgaris)
# Outline: as §1
# [12] = system: velvetleaf (Abutilon theophrasti)
# Outline: as §1
# [13] = system: wheat (Triticum aestivum)
# Outline: as §1
# [14] = system: wild oat (Avena fatua)
# Outline: as §1
compound,measurement,setting,value
Cc1cnc(-c2ccc(C(F)(F)F)cc2)nc1Cn1nc(C(F)(F)F)cc1C [Compound 13],"Plant response rating, Bedstraw","[1]; Rate 62 g/ha, Postemergence",7
same,Bedstraw plant response rating,"[1]; Rate 62 g/ha, Preemergence",1
same,"Plant response rating, Bedstraw","[1]; Rate 125 g/ha, Postemergence",9
same,Bedstraw plant response rating,"[1]; Rate 125 g/ha, Preemergence",2
same,"Plant response rating, Bedstraw","[1]; Rate 250 g/ha, Postemergence",10
same,"Plant response rating, Bedstraw","[1]; Rate 250 g/ha, Preemergence",5
same,"Plant response rating, Bedstraw","[1]; Rate 500 g/ha, Postemergence",10
same,"Plant response rating, Bedstraw","[1]; Rate 500 g/ha, Preemergence",6
same,"Plant response rating, Blackgrass","[2]; Rate 62 g/ha, Postemergence",3
same,Blackgrass plant response rating,"[2]; Rate 62 g/ha, Preemergence",2
same,"Plant response rating, Blackgrass","[2]; Rate 125 g/ha, Postemergence",3
same,Blackgrass plant response rating,"[2]; Rate 125 g/ha, Preemergence",4
same,"Plant response rating, Blackgrass","[2]; Rate 250 g/ha, Postemergence",5
same,"Plant response rating, Blackgrass","[2]; Rate 250 g/ha, Preemergence",4
same,"Plant response rating, Blackgrass","[2]; Rate 500 g/ha, Postemergence",5
same,"Plant response rating, Blackgrass","[2]; Rate 500 g/ha, Preemergence",9
same,"Plant response rating, B. signalgrass","[3]; Rate 62 g/ha, Postemergence",5
same,B. signalgrass plant response rating,"[3]; Rate 62 g/ha, Preemergence",7
same,"Plant response rating, B. signalgrass","[3]; Rate 125 g/ha, Postemergence",5
same,B. signalgrass plant response rating,"[3]; Rate 125 g/ha, Preemergence",8
same,"Plant response rating, B. signalgrass","[3]; Rate 250 g/ha, Postemergence",7
same,"Plant response rating, B. signalgrass","[3]; Rate 250 g/ha, Preemergence",9
same,"Plant response rating, B. signalgrass","[3]; Rate 500 g/ha, Postemergence",8
same,"Plant response rating, B. signalgrass","[3]; Rate 500 g/ha, Preemergence",9
same,"Plant response rating, Cocklebur","[4]; Rate 62 g/ha, Postemergence",6
same,Cocklebur plant response rating,"[4]; Rate 62 g/ha, Preemergence",0
same,"Plant response rating, Cocklebur","[4]; Rate 125 g/ha, Postemergence",9
same,"Plant response rating, Cocklebur","[4]; Rate 250 g/ha, Postemergence",9
same,"Plant response rating, Cocklebur","[4]; Rate 250 g/ha, Preemergence",5
same,"Plant response rating, Cocklebur","[4]; Rate 500 g/ha, Postemergence",9
same,"Plant response rating, Cocklebur","[4]; Rate 500 g/ha, Preemergence",7
same,"Plant response rating, Corn","[5]; Rate 62 g/ha, Postemergence",3
same,Corn plant response rating,"[5]; Rate 62 g/ha, Preemergence",1
same,"Plant response rating, Corn","[5]; Rate 125 g/ha, Postemergence",3
same,Corn plant response rating,"[5]; Rate 125 g/ha, Preemergence",1
same,"Plant response rating, Corn","[5]; Rate 250 g/ha, Postemergence",3
same,"Plant response rating, Corn","[5]; Rate 250 g/ha, Preemergence",1
same,"Plant response rating, Corn","[5]; Rate 500 g/ha, Postemergence",4
same,"Plant response rating, Corn","[5]; Rate 500 g/ha, Preemergence",2
same,"Plant response rating, Crabgrass","[6]; Rate 62 g/ha, Postemergence",3
same,Crabgrass plant response rating,"[6]; Rate 62 g/ha, Preemergence",9
same,"Plant response rating, Crabgrass","[6]; Rate 125 g/ha, Postemergence",4
same,Crabgrass plant response rating,"[6]; Rate 125 g/ha, Preemergence",10
same,"Plant response rating, Crabgrass","[6]; Rate 250 g/ha, Postemergence",7
same,"Plant response rating, Crabgrass","[6]; Rate 250 g/ha, Preemergence",10
same,"Plant response rating, Crabgrass","[6]; Rate 500 g/ha, Postemergence",9
same,"Plant response rating, Crabgrass","[6]; Rate 500 g/ha, Preemergence",10
same,"Plant response rating, Giant foxtail","[7]; Rate 62 g/ha, Postemergence",2
same,Giant foxtail plant response rating,"[7]; Rate 62 g/ha, Preemergence",9
same,"Plant response rating, Giant foxtail","[7]; Rate 125 g/ha, Postemergence",3
same,Giant foxtail plant response rating,"[7]; Rate 125 g/ha, Preemergence",10
same,"Plant response rating, Giant foxtail","[7]; Rate 250 g/ha, Postemergence",4
same,"Plant response rating, Giant foxtail","[7]; Rate 250 g/ha, Preemergence",10
same,"Plant response rating, Giant foxtail","[7]; Rate 500 g/ha, Postemergence",5
same,"Plant response rating, Giant foxtail","[7]; Rate 500 g/ha, Preemergence",10
same,"Plant response rating, Morningglory","[8]; Rate 62 g/ha, Postemergence",7
same,Morningglory plant response rating,"[8]; Rate 62 g/ha, Preemergence",9
same,"Plant response rating, Morningglory","[8]; Rate 125 g/ha, Postemergence",7
same,Morningglory plant response rating,"[8]; Rate 125 g/ha, Preemergence",10
same,"Plant response rating, Morningglory","[8]; Rate 250 g/ha, Postemergence",9
same,"Plant response rating, Morningglory","[8]; Rate 250 g/ha, Preemergence",9
same,"Plant response rating, Morningglory","[8]; Rate 500 g/ha, Postemergence",9
same,"Plant response rating, Morningglory","[8]; Rate 500 g/ha, Preemergence",10
same,"Plant response rating, Redroot pigweed","[9]; Rate 62 g/ha, Postemergence",9
same,Redroot pigweed plant response rating,"[9]; Rate 62 g/ha, Preemergence",7
same,"Plant response rating, Redroot pigweed","[9]; Rate 125 g/ha, Postemergence",9
same,Redroot pigweed plant response rating,"[9]; Rate 125 g/ha, Preemergence",9
same,"Plant response rating, Redroot pigweed","[9]; Rate 250 g/ha, Postemergence",10
same,"Plant response rating, Redroot pigweed","[9]; Rate 250 g/ha, Preemergence",9
same,"Plant response rating, Redroot pigweed","[9]; Rate 500 g/ha, Postemergence",10
same,"Plant response rating, Redroot pigweed","[9]; Rate 500 g/ha, Preemergence",9
same,"Plant response rating, Nutsedge","[10]; Rate 62 g/ha, Postemergence",0
same,Nutsedge plant response rating,"[10]; Rate 62 g/ha, Preemergence",0
same,"Plant response rating, Nutsedge","[10]; Rate 125 g/ha, Postemergence",0
same,Nutsedge plant response rating,"[10]; Rate 125 g/ha, Preemergence",0
same,"Plant response rating, Nutsedge","[10]; Rate 250 g/ha, Postemergence",0
same,"Plant response rating, Nutsedge","[10]; Rate 250 g/ha, Preemergence",0
same,"Plant response rating, Nutsedge","[10]; Rate 500 g/ha, Postemergence",0
same,"Plant response rating, Nutsedge","[10]; Rate 500 g/ha, Preemergence",0
same,"Plant response rating, Sugarbeets","[11]; Rate 62 g/ha, Postemergence",9
same,Sugarbeets plant response rating,"[11]; Rate 62 g/ha, Preemergence",9
same,"Plant response rating, Sugarbeets","[11]; Rate 125 g/ha, Postemergence",10
same,Sugarbeets plant response rating,"[11]; Rate 125 g/ha, Preemergence",10
same,"Plant response rating, Sugarbeets","[11]; Rate 250 g/ha, Postemergence",10
same,"Plant response rating, Sugarbeets","[11]; Rate 250 g/ha, Preemergence",10
same,"Plant response rating, Sugarbeets","[11]; Rate 500 g/ha, Postemergence",10
same,"Plant response rating, Sugarbeets","[11]; Rate 500 g/ha, Preemergence",10
same,"Plant response rating, Velvetleaf","[12]; Rate 62 g/ha, Postemergence",4
same,Velvetleaf plant response rating,"[12]; Rate 62 g/ha, Preemergence",6
same,"Plant response rating, Velvetleaf","[12]; Rate 125 g/ha, Postemergence",4
same,Velvetleaf plant response rating,"[12]; Rate 125 g/ha, Preemergence",7
same,"Plant response rating, Velvetleaf","[12]; Rate 250 g/ha, Postemergence",8
same,"Plant response rating, Velvetleaf","[12]; Rate 250 g/ha, Preemergence",10
same,"Plant response rating, Velvetleaf","[12]; Rate 500 g/ha, Postemergence",8
same,"Plant response rating, Velvetleaf","[12]; Rate 500 g/ha, Preemergence",10
same,"Plant response rating, Wheat","[13]; Rate 62 g/ha, Postemergence",2
same,Wheat plant response rating,"[13]; Rate 62 g/ha, Preemergence",0
same,"Plant response rating, Wheat","[13]; Rate 125 g/ha, Postemergence",3
same,Wheat plant response rating,"[13]; Rate 125 g/ha, Preemergence",0
same,"Plant response rating, Wheat","[13]; Rate 250 g/ha, Postemergence",3
same,"Plant response rating, Wheat","[13]; Rate 250 g/ha, Preemergence",0
same,"Plant response rating, Wheat","[13]; Rate 500 g/ha, Postemergence",4
same,"Plant response rating, Wheat","[13]; Rate 500 g/ha, Preemergence",1
same,"Plant response rating, Wild oats","[14]; Rate 62 g/ha, Postemergence",3
same,Wild oats plant response rating,"[14]; Rate 62 g/ha, Preemergence",3
same,"Plant response rating, Wild oats","[14]; Rate 125 g/ha, Postemergence",3
same,Wild oats plant response rating,"[14]; Rate 125 g/ha, Preemergence",5
same,"Plant response rating, Wild oats","[14]; Rate 250 g/ha, Postemergence",4
same,"Plant response rating, Wild oats","[14]; Rate 250 g/ha, Preemergence",7
same,"Plant response rating, Wild oats","[14]; Rate 500 g/ha, Postemergence",4
same,"Plant response rating, Wild oats","[14]; Rate 500 g/ha, Preemergence",9
